pEC50, pKi: −log10 of the molar value.
Key:
Molt-4 cells = test: Cell viability counter screen assay (CellTiter-Glo) in Molt-4 cells; format: cell-based; details: 24 hours, 10% Human Serum, 50% decrease in cell viability
Method in brief: (§1)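 RS4;11 or Molt-4 cells (3000 per well) in RPMI 1640 with 10% human serum treated with compound for 24 h, 5% CO2. Viability measured by CellTiter-Glo as percent of control; EC50 from sigmoidal dose-response curves.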

RS4;11 cells = test: Cell viability assay (CellTiter-Glo) in RS4;11 cell line; format: cell-based; details: 24 hours, 10% Human Serum, 50% decrease in cell viability
Method in brief: as §1

Bcl-xL protein = Bcl-xL protein (Homo sapiens (Human), UniProt Q07817); test: TR-FRET binding assay, Bcl-xL (F-Bak peptide probe); details: Bak BH3 peptide probe, Wang's equation
Sequence of Bcl-xL protein (Q07817 other isoform, or with tags, fused parts or gaps): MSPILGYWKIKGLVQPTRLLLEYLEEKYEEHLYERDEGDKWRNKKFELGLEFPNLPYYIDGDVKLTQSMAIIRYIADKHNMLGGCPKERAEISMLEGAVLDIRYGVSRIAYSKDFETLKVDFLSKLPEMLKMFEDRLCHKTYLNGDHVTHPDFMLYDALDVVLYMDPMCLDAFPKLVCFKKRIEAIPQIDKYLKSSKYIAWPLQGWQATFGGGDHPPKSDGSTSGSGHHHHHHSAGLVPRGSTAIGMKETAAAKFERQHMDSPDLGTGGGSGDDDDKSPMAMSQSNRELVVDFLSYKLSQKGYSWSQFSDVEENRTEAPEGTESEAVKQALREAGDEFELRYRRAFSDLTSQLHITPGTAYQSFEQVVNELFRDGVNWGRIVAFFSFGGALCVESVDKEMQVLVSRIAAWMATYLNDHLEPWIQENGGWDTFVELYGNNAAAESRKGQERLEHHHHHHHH
Description: (§2) Determination of the utility of compounds having Formula (I) or Formula (II) as binders to and inhibitors of anti-apoptotic Bcl-2 proteins was performed using the Time Resolved-Fluorescence Resonance Energy Transfer (TR-FRET) Assay. Tb-anti-GST antibody was purchased from Invitrogen (Catalog No. PV4216).
A human Bcl-xL encoding sequence was cloned into a pET41A vector. The protein was expressed with E. coli. BL21(DE3)-T1R strain in OETB autoinduction medium at 30° C. for 25 hours. The cell pellets were resuspended in lysis buffer (50 mM Tris, 140 mM NaCl, 1 mM DTT, 10% Glycerol, 0.1% Triton X-100, pH 7.5) and lysed with Microfluidizer. The Bcl-xL protein in clarified cell-lysate was purified with GST affinity chromatography. The eluate was dialyzed in the storage buffer (1×PBS, 10% Glycerol, 2 mM DTT, 1 mM Sodium Azide, pH 7.4) and stored at −80° C.
(§3) […] of a protein (Bcl-2 or Bcl-xL)/probe/antibody mixture pre-equilibrated for one hour in assay buffer was added to each well at final concentrations listed in Table 6 below.
(§4) The samples were then mixed on a shaker for 1 minute and equilibrated for an additional 3 hours at room temperature. For each assay plate, a probe/antibody and protein/antibody/probe mixture were included as a negative and a positive control, respectively. Fluorescence was measured on the Envision (Perkin Elmer) using a 340/35 nm excitation filter and 520/525 (F-Bak) and 495/510 nm (Tb-labeled anti-GST antibody) emission filters. Inhibition constants (Ki) were determined using Wang's equation (Wang FEBS Lett. 1995, 360, 111-114). The TR-FRET assay can be performed in the presence of varying concentrations of human serum (HS) to determine apparent half maximal inhibitory concentration (IC50) after HS protein binding.
(§5) Inhibition constants were determined using Wang's equation (Wang FEBS Lett. 1995, 360:111-4).

Bcl-2 protein = Bcl-2 protein (Homo sapiens (Human), UniProt P10415); test: TR-FRET binding assay, Bcl-2 (F-Bak peptide probe); details: Bak BH3 peptide probe, Wang's equation
Sequence of Bcl-2 protein (P10415 other isoform, or with tags, fused parts or gaps): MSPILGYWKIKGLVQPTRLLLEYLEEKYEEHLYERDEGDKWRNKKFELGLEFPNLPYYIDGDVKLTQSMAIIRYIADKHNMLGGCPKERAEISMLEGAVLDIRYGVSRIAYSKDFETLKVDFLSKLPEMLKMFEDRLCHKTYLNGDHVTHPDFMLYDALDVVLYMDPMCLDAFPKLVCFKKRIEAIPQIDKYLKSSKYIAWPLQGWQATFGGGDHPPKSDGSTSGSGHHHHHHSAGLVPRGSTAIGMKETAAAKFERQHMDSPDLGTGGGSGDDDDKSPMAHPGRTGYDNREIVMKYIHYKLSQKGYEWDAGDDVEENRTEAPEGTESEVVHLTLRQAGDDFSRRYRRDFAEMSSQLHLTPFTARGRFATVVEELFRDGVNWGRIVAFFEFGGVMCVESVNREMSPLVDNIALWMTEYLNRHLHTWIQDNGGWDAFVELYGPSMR
Description: as §2
A Bcl-2 human encoding sequence was cloned into a pET41A vector (Novagen). The protein was expressed with E. coli. BL21(DE3)-T1R strain in OETB autoinduction medium at 30° C. for 25 hours. The cell pellets were resuspended in lysis buffer (50 mM Tris, 140 mM NaCl, 1 mM DTT, 10% Glycerol, 2 mM MgCl2, pH 7.3) and lysed with Microfluidizer. The Bcl-2 protein in clarified cell-lysate was purified with affinity chromatography (GST and Ni-NTA). The eluate was loaded onto a Superdex 75 column and further purified with a Q Sepharose column. The protein was purified on a phenyl hydrophobic interaction column and dialyzed in the storage buffer (50 mM Tris, 50 mM NaCl, 2 mM DTT, pH 7.5) and stored at −80° C.
as §3, §4, §5

Row | SMILES | pEC50 (Molt-4 cells) | pEC50 (RS4;11 cells) | pKi (Bcl-xL protein) | pKi (Bcl-2 protein)
1 | CC1(C)CC(c2ccc(Cl)cc2)=C2CN3CCN(c4ccc(C(=O)NS(=O)(=O)c5ccc(OC[C@H]6CC[C@](C)(O)CC6)c(Cl)c5)c(N5CCCOc6nc7[nH]ccc7cc65)c4)C[C@H]3COCCCO[C@@H]2C1 [Example 43, N-((3-chloro-4-(((1r,4r)-4-hydroxy-4-methylcyclohexyl)methoxy)phenyl)sulfonyl)-4-((4aS,10aR)-14-(4-chlorophenyl)-12,12-dimethyl-1,2,4a,5,8,9,10a,11,13,15-decahydro-7H,12H-benzo[f]pyrazino[2,1-c][1,8]dioxa[4]azacycloundecin-3(4H)-yl)-2-(3,4-dihydro-2H-pyrrolo[3′,2′:5,6]pyrido[2,3-b][1,4]oxazepin-1(7H)-yl)benzamide] | < 5.00 | 7.75 | 7.53 | 10.07
2 | CC1(C)CC(c2ccc(Cl)cc2)=C2CN3CCN(c4ccc(C(=O)NS(=O)(=O)c5cnc(OC[C@H]6CC[C@](C)(O)CC6)c(Cl)c5)c(N5CCCOc6nc7[nH]ccc7cc65)c4)C[C@H]3COCCCO[C@@H]2C1 [Example 42, N-((5-chloro-6-(((1r,4r)-4-hydroxy-4-methylcyclohexyl)methoxy)pyridin-3-yl)sulfonyl)-4-((4aS,10aR)-14-(4-chlorophenyl)-12,12-dimethyl-1,2,4a,5,8,9,10a,11,13,15-decahydro-7H,12H-benzo[f]pyrazino[2,1-c][1,8]dioxa[4]azacycloundecin-3(4H)-yl)-2-(3,4-dihydro-2H-pyrrolo[3′,2′:5,6]pyrido[2,3-h][1,4]oxazepin-1(7H)-yl)benzamide] | < 5.00 | 7.95 | 7.60 | 9.80
3 | CC1(C)CC(c2ccc(Cl)cc2)=C2CN3CCN(c4ccc(C(=O)NS(=O)(=O)c5ccc(OC[C@H]6CC[C@](C)(O)CC6)c([N+](=O)[O-])c5)c(N5CCCOc6nc7[nH]ccc7cc65)c4)C[C@H]3COCCCO[C@@H]2C1 [Example 44, 4-((4aS,10aR)-14-(4-chlorophenyl)-12,12-dimethyl-1,2,4a,5,8,9,10a,11,13,15-decahydro-7H,12H-benzo[f]pyrazino[2,1-c][1,8]dioxa[4]azacycloundecin-3(4H)-yl)-2-(3,4-dihydro-2H-pyrrolo[3′,2′:5,6]pyrido[2,3-b][1,4]oxazepin-1(7H)-yl)-N-((4-(((1r,4r)-4-hydroxy-4-methylcyclohexyl)methoxy)-3-nitrophenyl)sulfonyl)benzamide] | 5.64 | 8.36 | 8.10 | 10.05
4 | COC[C@]1(F)C[C@H](CNc2ccc(S(=O)(=O)NC(=O)c3ccc(N4CCN5CC6=C(c7ccc(Cl)cc7)CC(C)(C)C[C@H]6OCCCOC[C@@H]5C4)cc3N3CCCOc4nc5[nH]ccc5cc43)cc2[N+](=O)[O-])C1 [Example 47, 4-((4aS,10aR)-14-(4-chlorophenyl)-12,12-dimethyl-1,2,4a,5,8,9,10a,11,13,15-decahydro-7H,12H-benzo[f]pyrazino[2,1-c][1,8]dioxa[4]azacycloundecin-3(4H)-yl)-2-(3,4-dihydro-2H-pyrrolo[3′,2′:5,6]pyrido[2,3-b][1,4]oxazepin-1(7H)-yl)-N-((4-((((1r,3r)-3-fluoro-3-(methoxymethyl)cyclobutyl)methyl)amino)-3-nitrophenyl)sulfonyl)benzamide] | < 5.00 | 7.96 | 7.59 | 9.55

Reference: patent US11964990B2, “1,3,4,7-tetrahydro-2H-pyrrolo[3′,2′:5,6]pyrido[2,3-b][1,4]oxazepine bcl-2 inhibitors” (AbbVie Inc., priority 2022, dated 2024)
